In US6555692B1, “Preparation and use of bifunctional molecules having DNA sequence binding specificity” (California Institute of Technology, priority 1996, dated 2003):

Columns and labels:
Format in all cases: binding
5′-TGTCAGACA-3′ = assay: Recognition of 9-11 base pairs (Table 9); settings: 22° C. and pH 7.0
Description: (§1) Table 9 illustrates recognition of recognition of 9-11 base pairs by ImPyPy-X-ImPyPy-β-Dp.

5′-TGTCAAAGACA-3′ = assay: Recognition of 9-11 base pairs (Table 9); settings: 22° C. and pH 7.0
Description: as §1

5′-gcggtTGTCAacccg-3′ = assay: Recognition of 9-11 base pairs (Table 9); settings: 22° C. and pH 7.0
Description: as §1

5′-TGTCAAGACA-3′ = assay: Recognition of 9-11 base pairs (Table 9); settings: 22° C. and pH 7.0
Description: as §1

5′-AACCAAGTACTTGGTA-3′ = assay: Association constants, recognition of 16 base pairs
Description: Table 8 illustrates recognition of 16 Base-Pairs by ImPyPyPy-X-ImImPy-γ-PyPyPy-β-Dp.

| SMILES | 5′-TGTCAGACA-3′ (5′-TGTCAGACA-3′) | 5′-TGTCAAAGACA-3′ (5′-TGTCAAAGACA-3′) | 5′-gcggtTGTCAacccg-3′ (5′-gcggtTGTCAacccg-3′) | 5′-TGTCAAGACA-3′ (5′-TGTCAAGACA-3′) | Ka (5′-gcggtTGTCAacccg-3′) [M⁻¹] | Specificity 5′-AACCAACTAGTTGGTA (5′-AACCAAGTACTTGGTA-3′; Table 8, center mismatch) | Specificity 5′-AACCAAGTACTTGCGA (5′-AACCAAGTACTTGGTA-3′; Table 8, edge mismatch) | Ka 5′-AACCAAGTACTTGGTA (5′-AACCAAGTACTTGGTA-3′; Table 8, match site) |
| --- | --- | --- | --- | --- | --- | --- | --- | --- |
| CN(C)CCCNC(=O)CCNC(=O)c1cc(NC(=O)c2cc(NC(=O)c3nc(NC(=O)CCCCCCCNC(=O)c4cc(NC(=O)c5cc(NC(=O)c6nccn6C)cn5C)cn4C)cn3C)cn2C)cn1C [ImPyPy-C8-ImPyPy-β-Dp] | 1 × 10^7 | 1 × 10^7 | 1 × 10^7 | 3 × 10^7 | – | – | – | – |
| CN(C)CCCNC(=O)CCNC(=O)c1cc(NC(=O)c2cc(NC(=O)c3nc(NC(=O)CCCCCCCCCCNC(=O)c4cc(NC(=O)c5cc(NC(=O)c6nccn6C)cn5C)cn4C)cn3C)cn2C)cn1C [ImPyPy-C11-ImPyPy-β-Dp] | 5 × 10^6 | 2 × 10^7 | 1 × 10^7 | 2 × 10^7 | – | – | – | – |
| CN(C)CCCNC(=O)CCNC(=O)c1cc(NC(=O)c2cc(NC(=O)c3nc(NC(=O)CNC(=O)c4cc(NC(=O)c5cc(NC(=O)c6nccn6C)cn5C)cn4C)cn3C)cn2C)cn1C [ImPyPy-G-ImPyPy-β-Dp] | 1 × 10^8 | 3 × 10^7 | 3 × 10^7 | 3 × 10^7 | – | – | – | – |
| CN(C)CCCNC(=O)CCNC(=O)c1cc(NC(=O)c2cc(NC(=O)c3nc(NC(=O)CCNC(=O)c4cc(NC(=O)c5cc(NC(=O)c6nccn6C)cn5C)cn4C)cn3C)cn2C)cn1C [ImPyPy-β-ImPyPy-β-Dp] | 2 × 10^8 | 1 × 10^9 | 1 × 10^9 | 2 × 10^8 | – | – | – | – |
| CN(C)CCCNC(=O)CCNC(=O)c1cc(NC(=O)c2cc(NC(=O)c3nc(NC(=O)CCNC(=O)c4cc(NC(=O)CCNC(=O)c5cc(NC(=O)c6cc(NC(=O)c7nccn7C)cn6C)cn5C)cn4C)cn3C)cn2C)cn1C [ImPyPy-β-Py-β-ImPyPy-β-Dp] | 3 × 10^8 | 1 × 10^9 | – | 2 × 10^8 | < 1e+08 | – | – | – |
| CN(C)CCCNC(=O)CCNC(=O)c1cc(NC(=O)c2cc(NC(=O)c3cc(NC(=O)CCNC(=O)c4cc(NC(=O)c5cc(NC(=O)c6nccn6C)cn5C)cn4C)cn3C)cn2C)cn1C [ImPyPy-β-PyPyPy-β-Dp] | 2 × 10^8 | 5 × 10^7 | 3 × 10^7 | 5 × 10^7 | – | – | – | – |
| CN(C)CCCNC(=O)CCNC(=O)c1cc(NC(=O)c2cc(NC(=O)c3nc(NC(=O)CCNC(=O)CCNC(=O)c4cc(NC(=O)c5cc(NC(=O)c6nccn6C)cn5C)cn4C)cn3C)cn2C)cn1C [ImPyPy-β-β-ImPyPy-β-Dp] | 1 × 10^7 | 1 × 10^7 | 2 × 10^7 | 5 × 10^7 | – | – | – | – |
| CN(C)CCCNC(=O)CCNC(=O)c1cc(NC(=O)c2cc(NC(=O)c3nc(NC(=O)CCNC(=O)CCNC(=O)CCNC(=O)c4cc(NC(=O)c5cc(NC(=O)c6nccn6C)cn5C)cn4C)cn3C)cn2C)cn1C [ImPyPy-β-β-β-ImPyPy-β-Dp] | 1 × 10^7 | 7 × 10^7 | 1 × 10^7 | 1 × 10^7 | – | – | – | – |
| CN(C)CCCNC(=O)CCNC(=O)c1cc(NC(=O)c2cc(NC(=O)c3nc(NC(=O)CCCNC(=O)c4cc(NC(=O)c5cc(NC(=O)c6nccn6C)cn5C)cn4C)cn3C)cn2C)cn1C [ImPyPy-γ-ImPyPy-β-Dp] | 5 × 10^7 | 1 × 10^8 | 2 × 10^8 | 1 × 10^8 | – | – | – | – |
| CN(C)CCCNC(=O)CCNC(=O)c1cc(NC(=O)c2cc(NC(=O)c3cc(NC(=O)CCCNC(=O)c4cc(NC(=O)c5nc(NC(=O)c6nc(NC(=O)CCCCNC(=O)c7cc(NC(=O)c8cc(NC(=O)c9cc(NC(=O)c%10nccn%10C)cn9C)cn8C)cn7C)cn6C)cn5C)cn4C)cn3C)cn2C)cn1C [ImPyPyPy-C5-ImImPy-γ-PyPyPy-β-Dp] | – | – | – | – | – | >3 | >3 | 7 × 10^8 |
